The results in this text go back to patent US20190202799A1, “IMIDAZOLE DERIVATIVES AND THEIR USE IN THE TREATMENT OF AUTOIMMUNE OR INFLAMMATORY DISEASES OR CANCERS” (GLAXOSMITHKLINE INTELLECTUAL PROPERTY (No.2) LIMITED, priority 2016, published 2019).

The test system of the experiment is MCP-1 production. Description: LPS induced MCP-1 production from human whole blood. Format: cell-based. Conditions: LPS 200 ng/mL, 18-24 hours, read-out: mean pIC50, LPS induced MCP-1 production (converted). As to the method:
Activation of monocytic cells by agonists of toll-like receptors such as bacterial lipopolysaccharide (LPS) results in production of key inflammatory mediators including MCP-1. Such pathways are widely considered to be central to the pathophysiology of a range of auto-immune and inflammatory disorders.
Blood is collected in a tube containing Sodium heparin (Leo Pharmaceuticals) (10 units of heparin/mL of blood). 96-well compound plates containing 0.5 μL test sample (compound) in 100% DMSO were prepared (two replicates on account of donor variability). 130 μL of whole blood was dispensed into each well of the 96-well compound plates and incubated for 30 min at 37° C., 5% CO2. 10 μL of lipopolysaccharide (from Salmonella typhosa; L6386) made up in PBS (200 ng/mL final assay concentration) was added to each well of the compound plates. The plates were then placed in the humidified primary cell incubator for 18-24 hours at 37° C., 5% CO2. 140 μL of PBS was added to all wells of the compound plates containing blood. The plates were then sealed and centrifuged for 10 mins at 2500 rpm (r.t). […] 150 μL of 2×MSD Read Buffer T (stock 4×MSD Read Buffer T was diluted 50:50 with de-ionised water) was then added to each well and the plates read on the MSD Sector Imager 6000. Concentration response curves for each compound were generated from the data and an IC50 value was calculated.

Take `Cc1cc(-c2nc(C(=O)O)cn2Cc2ccccc2)cn(C)c1=O` [Example 34, 1-benzyl-2-(1,5-dimethyl-6-oxo-1,6-dihydropyridin-3-yl)-1H-imidazole-4-carboxylic acid]: the IC50 is more than 20 µM.
